In paper PMC13252604, “First Generation Proteolysis Targeting Chimeras (PROTACs) for the Treatment of Progeria” (Advanced Science, 2026):

Target: T1, progerin (Mus musculus, UniProt P48678, DEL608-657)
T1 construct: endogenous in cells; host or cells: immortalized (SV40-LT) fibroblasts from Lmna G609G/G609G mice
T1 sequence (P48678 with tags, fused parts or gaps DEL608-657 limits assumed): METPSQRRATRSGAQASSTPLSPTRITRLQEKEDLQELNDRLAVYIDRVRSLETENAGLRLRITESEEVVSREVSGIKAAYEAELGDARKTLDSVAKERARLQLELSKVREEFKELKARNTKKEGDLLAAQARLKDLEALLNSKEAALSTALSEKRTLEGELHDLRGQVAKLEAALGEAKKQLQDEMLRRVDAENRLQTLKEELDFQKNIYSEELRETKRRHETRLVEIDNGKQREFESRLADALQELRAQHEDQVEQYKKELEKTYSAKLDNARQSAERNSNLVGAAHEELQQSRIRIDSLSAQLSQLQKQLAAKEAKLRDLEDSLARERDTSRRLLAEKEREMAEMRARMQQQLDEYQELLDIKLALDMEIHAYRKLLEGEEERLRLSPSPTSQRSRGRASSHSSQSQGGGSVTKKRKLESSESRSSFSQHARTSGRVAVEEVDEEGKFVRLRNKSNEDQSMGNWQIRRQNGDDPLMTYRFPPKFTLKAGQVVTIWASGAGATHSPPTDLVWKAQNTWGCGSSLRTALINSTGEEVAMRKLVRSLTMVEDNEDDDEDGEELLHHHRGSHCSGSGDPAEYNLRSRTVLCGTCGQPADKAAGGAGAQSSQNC
Assay: Progerin degradation, immunoblot in Lmna^G609G/G609G fibroblasts
Type: cell-based
Conditions: 8 h; for progerin levels (immunoblot quantification): Lmna^G609G/G609G fibroblasts, 5 µM, vs vehicle
Method: The ability of compounds 2‐6 to degrade progerin was evaluated in Lmna^G609G/G609G fibroblasts, derived from the progeria mouse model that most closely replicates the human disease phenotype. Lamin A/C antibody was used for immunodetection due to its prevalent use in this context, enabling simultaneous visualization of both lamins and progerin [15].
FIGURE 2 (A) Representative cropped immunoblots and quantification of progerin from Lmna^G609G/G609G fibroblasts. Cells were incubated with vehicle or indicated compound at 5 µM for 8 h. MW, molecular weight (in kDa) markers. (B, C) Concentration and time‐dependency of the reduction of progerin levels induced by compounds 2 and 9. Graphs show quantification of progerin in Lmna^G609G/G609G fibroblasts (immunoblots are shown in Supporting Figure S1). Cells were incubated with vehicle or the indicated compound concentration for 8 h. For time‐course experiments, cells were incubated with vehicle or indicated compound at 5 µM. Bar graphs show mean±sem of 3 independent experiments performed in duplicate. Data were analysed using one‐way ANOVA followed by Dunnett's post–hoc test comparing all groups to the vehicle; ^*, p < 0.05. […]
4. Cell lines and culture.
Progeroid mouse fibroblasts, kindly donated by Prof. Carlos López Otín (Oviedo University, Spain), were isolated from LmnaG609G/G609G mice[19] and wild-type (WT) littermates and immortalized by retroviral transduction with SV40 large T antigen (SV40-LT). Since LmnaG609G/G609G mouse represents the most suitable and widely accepted model of HGPS, as it most faithfully recapitulates the molecular and phenotypic features of the human disease, its use in this study is fully justified. Moreover, although this cell […]
cells have been extensively validated by additional independent studies.[15, 65, 66] […]
experiments, nor does it affect the conclusions presented in our study.
Mouse fibroblasts were grown in Dulbecco’s modified eagle medium (DMEM, Gibco) supplemented with 10% heat inactivated fetal bovine serum (FBS, Gibco), 50 U/mL penicillin, and 50 μg/mL streptomycin (Invitrogen). Human progeroid HGADFN167 LmnaG608G/G608G (G608G) or or healthy HGADFN168 Lmna+/+ (WT) fibroblasts, were obtained from The Progeria Research Foundation (RRIDs CVCL_1Y92 and CVCL_1Y93, respectively) and cultured in DMEM with 20% heat inactivated FBS, 50 U/mL penicillin and 50 μg/mL streptomycin. All cells were incubated in a humidified atmosphere at 37 °C in the presence of 5% CO2 and were confirmed to be free of mycoplasma contamination. […]
Measurements were performed in triplicate, and each experiment was repeated at least three times. The viability values were calculated from the percentage of viable cells with respect to 100% viability of the vehicle-treated cells.
6. Immunoblot and immunocytofluorescence analysis.
Mouse or human progeroid cells were seeded at density of […] or 5 x 10^4 cells respectively on 12-well plates and incubated for 24 h in DMEM medium. For proteosome-dependency assays, cells were pre-treated either with the proteasome inhibitor (S)-MG132 (20 µM) or with the NEDD8-activating enzyme inhibitor MLN4924 (5 µM) for 2 h prior to […]
compound exposure. Then, cells were incubated with compound of interest or DMSO for the appropriate time and lysed with cold laemmli buffer (50 mM Tris-HCl pH 7.4, 150 mM NaCl, 1% Igepal) with a mixture of protease and phosphatase inhibitors (1 mM PMSF, 10 mM NaF, 0.3 mg/mL CalyculinA, 1 mM sodium orthovanadate, 10 mM β-glycerol-phosphate; all from Sigma-Aldrich and complete protease inhibitor cocktail, from Roche). Proteins were denatured at 95 ᵒC for 5 min and the lysates were immediately used or stored at -20 ᵒC until use. Samples were analysed by electrophoresis in polyacrylamide gels (All Kd SDS-PAGE, BioRad) and the proteins transferred to nitrocellulose membranes (GE Healthcare, Amersham). After 1 h of incubation in blocking buffer [20 mM Tris pH 7.6, 150 mM NaCl and 0.1% Tween-20 (TBS-T) with […]

SMILES | progerin levels (immunoblot quantification) | progerin-reducing activity in the presence of proteasome inhibitor MG132 (compound 5 µM, pre-treated with (S)-MG132 20 µM 2 h) | progerin-reducing activity in the presence of neddylation inhibitor MLN4924 (compound 5 µM, pre-treated with MLN4924 5 µM 2 h)
CC1(C)Oc2cc3oc(=O)ccc3cc2C[C@@H]1OC(=O)CCCCC(=O)Oc1ccc2c(c1)CCCN2C(=O)CCl [compound 12] | failed to reduce progerin levels | – | –
CC1(C)Oc2cc3oc(=O)ccc3cc2C[C@@H]1OC(=O)CCCCCNc1cccc2c1C(=O)N(C1CCC(=O)NC1=O)C2=O (stereo partly shown) [compound 2] | most effective in reducing progerin levels | abolished | abolished
